Read-outs that look alike come from different tables or passages of the source.
Test: Acute toxicity, single intravenous injection, LD50 (Bliss method) in Kunming mice
Format: in vivo
Details: for Dead animals on each day after the single intravenous injection (c3-c11 = day 1-9, c12 = day 10-14): 163.8 mg/kg; for LD50 at 2 weeks: Kunming, mouse, in vivo, iv
Procedure: To evaluate the in vivo acute, intravenous toxicity of DBTS and ACEA100108 (a derivative of DBTS, see Table 33), the experiments were performed in non-tumor bearing, normal Kunming mice by monitoring the acute response of mice to a single dose of DBTS or ACEA100108 via intravenous injection (i.v.). The number of death for the treated mice was monitored and recorded. LD50 values for these compounds were calculated. Details of the study are provided below.
The experiments to test DBTS and ACEA100108 acute toxicity were performed in mice. The test mice were randomly divided into six groups (five dosing groups and one control group). Each group contained 20 Kunming strain mice, and among them, 50% were male and 50% were female. After administration of a single dose of DBTS or ACEA100108 via intravenous injection (i.v.), the acute response to DBTS or ACEA100108 compound, and the death of the treated mice during the first two weeks were monitored and recorded. The LD50 value was calculated using the Bliss method.
Materials and Method. The test chemical compound were DBTS and ACEA100108, which were dissolved into hydrogenated castor oil in the pre-warmed water bath and made as a 20 mg/ml solution. The solution was further diluted to desired experiment concentrations with the normal saline. The administration volume was 0.5 ml i.v. per mouse and the injection speed was 0.5 ml/0.5 min.
The experimental mice were Kunming strain, provided by the Experimental Animal Department, Shanghai Pharmaceutical Industry Institute. The certificate number of the facility was Animal Facility Certification Number 107. The average weight of the mice was 18-20 gram. Each test group contained 20 Kunming strain mice, and among them, 10 mice were male and 10 mice were female. […] The mice in the control group were only given the same volume of the solvent, which were diluted hydrogenated castor oil. All the testing mice were given a single intravenous injection of DBTS, ACEA100108, or the solvent that served as the control at the injection speed of 0.5 ml/0.5 min. The acute response to DBTS, ACEA100108 or the solvent immediately after the administration, as well as weight change, and the death within the first two weeks of the administration were monitored and recorded. The intravenous injection LD50 values in mice were calculated using the Bliss method.

[1] = female, 163.8 mg/kg single i.v.
[2] = female, 204.8 mg/kg single i.v.

c1ccc(CSSSCc2ccccc2)cc1 [DBTS, Dibenzyl trisulfide]
Percentage of dead animals % (50% male, 50% female, 163.8 mg/kg single i.v.): 0%
Dead animals on each day after the single intravenous injection (c3-c11 = day 1-9, c12 = day 10-14) (50% male, 50% female, 20 animals, deaths on day 8 after injection): 0
Dead animals on each day after the single intravenous injection (c3-c11 = day 1-9, c12 = day 10-14) (50% male, 50% female, 20 animals, deaths on days 10-14 after injection): 0 - - - 0
Percentage of dead animals % (50% male, 50% female, 204.8 mg/kg single i.v.): 15%
Percentage of dead animals % (50% male, 50% female, 256 mg/kg single i.v.): 45%
Percentage of dead animals % (50% male, 50% female, 320 mg/kg single i.v.): 85%
Percentage of dead animals % (50% male, 50% female, 400 mg/kg single i.v.): 100%
mouse single i.v. dose LD50, interval in parentheses (Kunming mice, 50% male 50% female, Bliss method): 234.96 to 284.56 mg/kg
LD50 at 2 weeks (both sexes, 50% male, 50% female Kunming mice, single i.v., read-out: LD50): 259 mg/kg
LD50 at 2 weeks (both sexes, 50% male, 50% female Kunming mice, single i.v., read-out: LD50 (95% CL)): 235 to 284 mg/kg
LD50 at 2 weeks (both sexes, Kunming mice, 50% male 50% female, Bliss method, read-out: mouse single i.v. dose LD50, interval in parentheses): 235 to 284 mg/kg
LD50 at 2 weeks (both sexes, Kunming mice, 50% male 50% female, Bliss method, read-out: mouse single i.v. dose LD50 value): 259 mg/kg
Average animal weight (g) Beginning [1]: 19.9 g
Average animal weight (g) End [1]: 24.5 g
Percentage of dead animals % [1]: 0%
Dead animals on each day after the single intravenous injection (c3-c11 = day 1-9, c12 = day 10-14) (female, 10 animals, deaths on day 8 after injection): 0
Dead animals on each day after the single intravenous injection (c3-c11 = day 1-9, c12 = day 10-14) (female, 10 animals, deaths on days 10-14 after injection): 0 - - - 0
Average animal weight (g) Beginning [2]: 20.5 g
Percentage of dead animals % [2]: 20%
Average animal weight (g) End (female, 204.8 mg/kg single i.v., survivors): 24.3 g
Average animal weight (g) Beginning (female, 256 mg/kg single i.v.): 19.9 g
Percentage of dead animals % (female, 256 mg/kg single i.v.): 50%
Average animal weight (g) End (female, 256 mg/kg single i.v., survivors): 24.2 g
Average animal weight (g) Beginning (female, 320 mg/kg single i.v.): 20.6 g
Percentage of dead animals % (female, 320 mg/kg single i.v.): 80%
Average animal weight (g) End (female, 320 mg/kg single i.v., survivors): 24.5 g
Average animal weight (g) Beginning (female, 400 mg/kg single i.v.): 19.8 g
Percentage of dead animals % (female, 400 mg/kg single i.v.): 100%
LD50 at 2 weeks (female, female Kunming mice, single i.v., read-out: LD50): 256 mg/kg
LD50 at 2 weeks (female, female Kunming mice, single i.v., read-out: LD50 (95% CL)): 222 to 296 mg/kg
Average animal weight (g) Beginning (male, 163.8 mg/kg single i.v.): 20.0 g
Average animal weight (g) End (male, 163.8 mg/kg single i.v.): 26.9 g
Percentage of dead animals % (male, 163.8 mg/kg single i.v.): 0%
Dead animals on each day after the single intravenous injection (c3-c11 = day 1-9, c12 = day 10-14) (male, 10 animals, deaths on day 8 after injection): 0
Dead animals on each day after the single intravenous injection (c3-c11 = day 1-9, c12 = day 10-14) (male, 10 animals, deaths on days 10-14 after injection): 0 - - - 0
Average animal weight (g) Beginning (male, 204.8 mg/kg single i.v.): 19.9 g
Percentage of dead animals % (male, 204.8 mg/kg single i.v.): 10%
Average animal weight (g) End (male, 204.8 mg/kg single i.v., survivors): 26.6 g
Average animal weight (g) Beginning (male, 256 mg/kg single i.v.): 20.4 g
Percentage of dead animals % (male, 256 mg/kg single i.v.): 40%
Average animal weight (g) End (male, 256 mg/kg single i.v., survivors): 26.3 g
Average animal weight (g) Beginning (male, 320 mg/kg single i.v.): 20.1 g
Percentage of dead animals % (male, 320 mg/kg single i.v.): 90%
Average animal weight (g) End (male, 320 mg/kg single i.v., survivors): 25.0 g
Average animal weight (g) Beginning (male, 400 mg/kg single i.v.): 20.1 g
Percentage of dead animals % (male, 400 mg/kg single i.v.): 100%
LD50 at 2 weeks (male, male Kunming mice, single i.v., read-out: LD50): 261 mg/kg
LD50 at 2 weeks (male, male Kunming mice, single i.v., read-out: LD50 (95% CL)): 230 to 296 mg/kg

From patent US8334316B2, “Substituted organosulfur compounds and methods of using thereof” (ACEA Biosciences, Inc., priority 2004, dated 2012)
